Measured values published in US5827720A, “α-glucosidase, and a process for producing the same” (priority 1995, dated 1998).

What follows are compounds tested on α-glucosidase (the present enzyme) from Bacillus sp. KS-108a (FERM BP-5337) (assay: not given). Details: 0.01 ml of 22 mM inhibitor added to 0.1 ml enzyme in 100 mM HEPES-NaOH pH 7.0 with 0.2% BSA, 25° C., 1 hour; then diluted 100-fold, activity on PNPG; control = 100.
Format: biochemical
Method: (§1) First, 0.25 ml of Solution 1 and 0.5 ml of Solution 2 were mixed and pre-incubated at 37° C. for 5 minutes, and then the solution was mixed with 0.25 ml enzyme solution (about 0.005 to 0.03 U/ml) and reacted accurately for 15 minutes at 37° C.
(§2) Then, the reaction was stopped by adding 1 ml of Solution 3 to the reaction solution and the paranitrophenol thus formed was colored. This sample was measured for absorbance at 400 nm in a spectrophotometer (U-2000A, Hitachi Ltd.).
The effect of treatment with various inhibitors was evaluated in the following manner.
0.1 ml of 0.0667 mg/ml of the present enzyme in 100 mM HEPES-NaOH buffer, pH 7.0 containing 0.2% BSA was added to 0.01 ml of 22 mM inhibitor (1.1% in the case of a surfactant as inhibitor) and incubated at 25° C. for 1 hour. Then, the sample was diluted 100-fold with 10 mM potassium phosphate buffer (pH 7.0) containing 0.2% BSA, and the remaining activity was determined in the same manner as above in titer measurement.
For O=C(O)c1ccccc1[N+](=O)[O-] [2-nitrobenzoic acid], the “remaining activity (%)” value was 102.7%. For CCN1C(=O)C=CC1=O [N-ethylmaleimide], the “remaining activity (%)” value was 107.5%. c1cnc2c(c1)ccc1cccnc12 [o-phenanthroline] was tested, and the “remaining activity (%)” value was 99.4%. In the case of O=C(O)c1cc[c]([Hg][Cl])cc1 [PCMB, p-chloromercuribenzoic acid], the “remaining activity (%)” value is reported as 97.7%. With O[C@H](CS)[C@H](O)CS (racemic) [dithiothreitol] the “remaining activity (%)” value was 105.4%. For OCCS [2-mercaptoethanol], the “remaining activity (%)” value was 99.6%. With [N-]=[N+]=[N-] [sodium azide] the “remaining activity (%)” value was 105.0%.

Same assay, conditions: 22 mM inhibitor stock, 25° C., 1 hour
For CCN1C(=O)C=CC1=O [N-ethylmaleimide], the “effect of treatment with inhibitor on the enzyme (in words)” value was “not affected”. For O=C(O)c1cc[c]([Hg][Cl])cc1 [PCMB, p-chloromercuribenzoic acid], the “effect of treatment with inhibitor on the enzyme (in words)” value was “not affected”.

Same assay, conditions: pH 7
For O=C(O)CN(CCN(CC(=O)O)CC(=O)O)CC(=O)O [EDTA-2Na], the “remaining activity (%)” value was 106.4%. With O=C(O)CI [monoiodoacetic acid] the “remaining activity (%)” value was 98.5%. With N[C@@H](CCC(=O)N[C@@H](CS)C(=O)NCC(=O)O)C(=O)O [glutathione] the “remaining activity (%)” value was 102.5%.

The compounds below were run on α-glucosidase (the present enzyme) from Bacillus sp. KS-108a (FERM BP-5337) (assay: Km value by Lineweaver-Burk plotting). Details: pH 7.0, 37° C., read-out: Km (PNPG as substrate).
Format: biochemical
Method: The measurement of the titer of the present enzyme was carried out in the following manner. The amount of the enzyme causing 1 μ mol paranitrophenol per minute to be released from PNPG was assumed as 1 U of the enzyme. (Preparation of a substrate solution, a buffer, a reaction terminating solution, and an enzyme diluent)
as §1, §2
O=[N+]([O-])c1ccc(O[C@H]2O[C@H](CO)[C@@H](O)[C@H](O)[C@H]2O)cc1 [PNPG, paranitrophenyl-α-D-glucopyranoside] gave a Km of 55 µM.
